{"source": "patent US7595395B2", "about": "“Gabaergic agents to treat memory deficits” (priority 2005, dated 2009)", "key": {"[1]": {"test_system": "full panel of receptors (5ht1a ... σ1, σ2)", "assay": "Full panel receptor binding (secondary binding)", "from_the_text": "FIGS. 28 A and B provide a full panel Receptor data for certain compounds of the invention. Data on the full panel (secondary binding) are Ki values. The Ki values are reported in nanomolar concentrations, In the Full panel data various receptors were used, including 5ht1a, 5ht1b, 5ht1d, 5ht1e, 5ht2a, 5ht2b, 5ht2c, 5ht3, 5ht5a, 5ht6, 5ht7, α1A, α1B, α2A, α2B, α2C, β1, β2, CB1, CB2, D1, D2, D3, D4, D5, DAT, DOR, H1, H2, H3, H4, imidazoline 1, KOR, M1, M2, M3, M4, M5, MDR1, MOR, NET, NMDA, SERT, σ1, and σ2. 5-HT receptors, 5ht1a, 5ht1b, 5ht1d, 5ht1e, 5ht2a, 5ht2b, 5ht2c, 5ht3, 5ht5a, 5ht6, 5ht7, are receptors for the neurotransmitter and peripheral signal mediator serotonin, also known as 5-hydroxytryptamine or 5-HT. α1A, α1B, α2A, α2B, α2C, β1, β2; CB1, CB2 are adrenoceptors; cannabinoid receptors, D1, D2, D3, D4, D5 are dopamine receptors; DAT is dopamine transporter receptor; DOR is δ-Opioid receptor; H1, H2, H3, H4 are histamine receptors; KOR is κ-Opioid receptor; M1, M2, M3, M4, M5 are muscarinic acetylcholine receptors; MDR represents multidrug resistance in the course of exposure to various compounds that are used in modern anticancer therapy, including cytotoxic drugs and differentiating agents. […]"}, "C57B1/6 mice": {"test_system": "C57B1/6 mice", "assay": "Spontaneous locomotive activity", "type": "in vivo", "settings": "30 mg/kg", "from_the_text": "Further, animal data for FIGS. 22-26 were obtained using experimental methodologies described in a previously published reference, Influence of benzodiazepine binding site ligands on fear-conditioned contextual memory European journal of Pharmacology, Volume 426, Issues 1-2, 24 Aug. 2001, Pages 45-54, Timothy M. DeLorey, Richard C. Lin, Brian McBrady, Xiaohui He, James M. Cook, Jelveh Lameh and Gilda H. Loew, which is incorporated by reference as if fully set forth here in its entirety. Selected sections of the reference are provided below:\nMale C57B1/6 mice were obtained from Charles Rivers Laboratories (Holister, Calif.) at 6 weeks of age. […] All animal protocols used in this study conform to the guidelines determined by the National Institute of Health (USA) Office for Protection from Research Risks and are approved by the Animal Care and Use Committee of the Palo Alto Veterans Administration Medical Center, Palo, Alto, Calif. […]\nMice were allowed to acclimate to the test room for 30 min prior to drug injection. […] Spontaneous locomotor activity was measured via seven sets of photoelectric sensors evenly spaced along the length of the monitoring chamber, 4 cm above the floor of the chamber (San Diego Instruments, San Diego, Calif.). Total activity was recorded in arbitrary units reflective of the number of times a mouse interrupts the photoelectric sensors during a 10-min monitoring session. […]"}, "Tail flick assay": {"assay": "Tail flick assay", "settings": "in vivo"}, "α2β3γ2 GABAA receptor": {"target": "α2β3γ2 GABAA receptor (Rattus norvegicus, UniProt P18508+P23576)", "sequence (P23576 29-451)": "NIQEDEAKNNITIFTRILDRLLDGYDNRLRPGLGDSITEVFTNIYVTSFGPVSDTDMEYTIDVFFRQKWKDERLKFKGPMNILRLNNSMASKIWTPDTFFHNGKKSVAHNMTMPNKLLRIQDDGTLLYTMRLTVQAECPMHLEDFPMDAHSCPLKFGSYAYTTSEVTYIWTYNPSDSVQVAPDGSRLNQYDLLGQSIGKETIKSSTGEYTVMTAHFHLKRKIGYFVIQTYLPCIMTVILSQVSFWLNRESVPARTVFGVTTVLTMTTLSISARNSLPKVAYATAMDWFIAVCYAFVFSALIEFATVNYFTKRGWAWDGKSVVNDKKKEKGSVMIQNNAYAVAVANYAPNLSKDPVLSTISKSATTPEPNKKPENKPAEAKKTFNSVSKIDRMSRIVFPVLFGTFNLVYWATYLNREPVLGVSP", "sequence (P63079 26-473 partner)": "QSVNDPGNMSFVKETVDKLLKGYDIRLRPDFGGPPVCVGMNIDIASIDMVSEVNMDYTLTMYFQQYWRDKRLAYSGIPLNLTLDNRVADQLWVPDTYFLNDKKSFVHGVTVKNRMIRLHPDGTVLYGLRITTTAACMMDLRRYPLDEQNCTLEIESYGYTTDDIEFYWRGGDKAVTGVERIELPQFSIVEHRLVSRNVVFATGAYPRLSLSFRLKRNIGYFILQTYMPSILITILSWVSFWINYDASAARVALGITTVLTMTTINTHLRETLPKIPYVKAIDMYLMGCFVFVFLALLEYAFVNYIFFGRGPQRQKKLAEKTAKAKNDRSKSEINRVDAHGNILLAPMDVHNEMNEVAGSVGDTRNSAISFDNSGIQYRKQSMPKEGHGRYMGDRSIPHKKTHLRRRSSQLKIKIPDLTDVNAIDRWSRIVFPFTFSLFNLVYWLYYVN", "sequence (P18508 39-466)": "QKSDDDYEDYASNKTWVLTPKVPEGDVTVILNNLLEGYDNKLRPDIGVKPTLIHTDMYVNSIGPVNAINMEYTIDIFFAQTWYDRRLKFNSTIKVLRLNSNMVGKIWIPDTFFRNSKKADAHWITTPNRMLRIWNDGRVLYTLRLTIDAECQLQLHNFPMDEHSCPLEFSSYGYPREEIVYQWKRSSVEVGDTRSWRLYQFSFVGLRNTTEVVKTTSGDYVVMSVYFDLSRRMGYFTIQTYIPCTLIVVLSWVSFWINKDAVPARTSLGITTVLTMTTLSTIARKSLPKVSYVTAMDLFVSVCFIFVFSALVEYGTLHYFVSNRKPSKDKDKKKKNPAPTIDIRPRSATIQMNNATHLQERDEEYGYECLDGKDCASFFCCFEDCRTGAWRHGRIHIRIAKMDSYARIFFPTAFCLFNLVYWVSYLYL", "assay": "Two-electrode voltage clamp in Xenopus oocytes, α2β3γ2", "settings": "oocytes"}, "[2]": {"test_system": "αxβ3γ2 (α = 1-6) BzR/GABA(A) subtypes", "assay": "Binding across the BzR/GABA(A) subtypes (subtype selectivity in words)", "set-up": "species or system human and rat", "protocol": "The binding affinity of XLi093 (8) in vitro was determined on α1-6β3γ2 LTK cells and is illustrated in the Scheme as shown in FIG. 2\nThe affinity of all ligands at the 6 major recombinant GABAA/BzR subtypes was measured by competition for [^3H]Ro15-1788 binding to HEK-T cells expressing both human and rat GABAA/Bz receptors of composition α1β2γ2 (α1), α2β2γ2 (α2), α3β2γ2 (α3), α4β2γ2 (α4), α5β2γ2 (α5) and α6β2γ2 (α6). It is well known that the β2 and β3 subunits can be interchanged with no effect on Bz ligand affinity or efficacy. […] These studies are similar to those performed in the laboratory of Bryan Roth who has already expressed the receptors employing the work of Kucken et. al. and Gray et. al.\nIn brief, for membrane preparations, the cells were scraped on to the ice and diluted into 5 mL of phosphate buffered saline (pH=7.40) and cells pelleted by centrifugation for 5 min. at 4° C. The pellet was resuspended in 1 mL of 50 mM Tris-acetate buffer (pH 7.4) and centrifuged at 18,000 g for 20 min. […] The membranes were harvested in polyethyleneimine-pretreated Whatman GF/C filters and after drying and addition of scintillation cocktail, counted in a scintillation counter. […]"}}}
{"smiles": "CCc1ccc2c(c1)C(=O)N(C)Cc1c(C(=O)OCCCOC(=O)c3ncn4c3CN(C)C(=O)c3cc(CC)ccc3-4)ncn1-2", "note": "[XLi356, 1,3-Bis(8-ethyl-5,6-dihydro-5-methyl-6-oxo-4H-imidazo[1,5a][1,4]benzodiazepine-3-carboxy)propyl diester]", "values": [{"measurement": "binding to other receptors in full panel (in words)", "setting": "[1]", "result": "do not bind to other receptors at levels of concern"}, {"measurement": "locomotion (in words)", "setting": "C57B1/6 mice", "result": "reduced"}, {"measurement": "analgesic effect in tail flick assay (in words)", "setting": "Tail flick assay", "result": "No analgesic effect"}]}
{"smiles": "COCc1ncn2c1CN(C)C(=O)c1cc(Cl)ccc1-2", "note": "[PWZ-029, methyl(8-chloro-5,6-dihydro-5-methyl-6-oxo-4H-imidazo[1,5-α][1,4]benzodiazepin-3-yl)methyl ether]", "values": [{"measurement": "efficacy / modulation of GABA elicited currents at α2 (in words)", "setting": "α2β3γ2 GABAA receptor", "result": "very, very weak agonist activity"}]}
{"smiles": "CCOC(=O)c1ncn2c1CN=C(c1ccccc1)c1cc(-c3ccccc3)ccc1-2", "note": "[DM-I-81, Ethyl 8-phenyl-6-phenyl-4H-benzo[f]imidazo[1,5-a][1,4]diazepine-3-carboxylate]", "values": [{"measurement": "affinity at other BzR/GABA(A) subtypes than α5 (in words)", "setting": "[2]", "result": "binds only to α5β3γ2 subtypes"}]}
